From US7879792B2, “Synthetic peptide inhibitors of thrombin and thrombin activation of protease activated receptors 1 and 4” (The Regents of the University of Michigan, priority 2005, dated 2011)
Where a SMILES comes first, the peptide text is derived from it.

Tested on: normal human lung fibroblasts (NHLF)
Experiment: α-thrombin-induced calcium mobilization in normal human lung fibroblasts
Assay type: cell-based
Conditions: 2 nM alpha thrombin
Procedure: The second assay developed to assess peptides from the combinatorial libraries uses inhibition of α-thrombin-induced calcium mobilization in fibroblasts. Normal human lung fibroblasts (NHLF) were purchased from Clonetics, San Diego, Calif., an affiliate of Bio-Wittaker, Walkersville, Md. The cytoplasmic free Ca^2+ concentration ([Ca^2+]i) was measured using the fluorescent Ca^2+ indicator fura-2 (Molecular Probes, Inc., Eugene, Oreg.). Suspension of fibroblasts in Hepes-Tyrode's buffer were loaded with fura-2 by incubation at 37° C. with 2 μM fura-2/acetoxymethyl ester for 45 minutes according to the method of Rasmussen et al., J. Biol. Chem. 268, 14322 (1993). The labeled fibroblasts were separated from excess probe by washing by centrifugation at 1000 rpm (180 xg). Aliquots of the labeled fibroblasts were transferred into a quartz cuvette with a magnetic stirrer, which was then placed in a thermostatically controlled chamber at 37° C. in a fluorescence spectrophotometer (Perkin-Elmer LS50B spectrofluorometer, Chicago, Ill.). Reagents, test peptide, and α-thrombin (0.25-2 nM), were sequentially added directly to the cuvette. The excitation wavelengths varied between 340 and 380 nm. Fluorescence was measured by recording emitted light at 510 nm as reported by Fisher et al., Mol Pharm. 35, 195 (1989). The minimum emission was determined on a solubilized fibroblast sample in the presence of 10 mM EDTA; maximum emission was determined on the same sample with 10 mM Ca^2+ added. The intrafibroblast free Ca^2+ concentration was calculated by the method of Grykiewicz et al., J. Biol. Chem. 260, 3440 (1985). The ratio of the fluorescence readings was calculated as R=340/380 nm and processed according to the equation [Ca^2+]i=KD((R−Rmin)/Rmax−R))(Sf2/Sb2) to determine the intrafibroblast free Ca^2+ concentration. The KD for fura-2 was assumed to be 224 nM. Rmax and Rmin are the maximum and minimum fluorescence ratios measured at the end of the experiment, respectively; Sf2 and Sb2 are the fluorescence values at 380 nm in the absence and presence of saturating [Ca^2+], respectively. The reaction was monitored for 3-5 minutes.

SMILES: Cc1ccc(C[C@H](NC(=O)[C@@H](C)NC(=O)[C@@H]2CCCN2C(=O)[C@@H]2C[C@@H]3CCCC[C@@H]3N2C(=O)[C@H](N)CCCNC(=N)N)C(N)=O)cc1 [rOicPaF(p-Me), D-Arg-Oic-Pro-D-Ala-Phe(p-Me)] (HELM PEPTIDE1{[dR].[O=C([C@@H]1C[C@@H]2CCCC[C@@H]2N1[*:1])[*:2]].P.[dA].[Cc1ccc(C[C@H](N[*:1])C(=O)[*:2])cc1].[am]}$$$$V2.0)
- alpha thrombin-induced calcium mobilization (0.00038 mM peptide): full recovery
- inhibition of thrombin-induced calcium mobilization (0.003 mM peptide): 69%
- inhibition of thrombin-induced calcium mobilization (0.08 mM peptide): 97%
